Results from patent US5656613A, “Treatment of hyperandrogenic conditions” (Merck & Co., Inc., priority 1995, dated 1997).
“Also recorded” adds a separate entry of the source. Like-named read-outs stand apart in the source and are kept apart here.

Tests used:
[1] = biological target: T1, human prostate (type 2) isozyme of 5α-reductase (Homo sapiens, UniProt P31213)
T1 sequence (P31213 1-254): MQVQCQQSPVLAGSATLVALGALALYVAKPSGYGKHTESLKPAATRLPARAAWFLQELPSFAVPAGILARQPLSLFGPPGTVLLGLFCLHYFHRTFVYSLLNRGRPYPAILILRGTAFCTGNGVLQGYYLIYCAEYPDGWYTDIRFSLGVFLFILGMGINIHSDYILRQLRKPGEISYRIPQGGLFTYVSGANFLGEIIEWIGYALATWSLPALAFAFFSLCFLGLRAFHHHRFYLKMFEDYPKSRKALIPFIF
Method: The rate constant for dissociation of the enzyme-inhibitor complex was determined from the rate of release of radioactivity from enzyme-[^3 H]finasteride complex in the presence of 100-fold excess unlabeled finasteride. The enzyme-[^3 H]finasteride complex was formed in a solution containing excess enzyme: 21.9 nM enzyme (6 mg protein, ~0.04% pure, taken from the relatively homogeneous 100,000×g supernatant fraction). […] After 2 hours, exchange was initiated by making the solution 933 nM in unlabeled finasteride (including 1% ethanol). The solution was divided into aliquots (100 μL) which were incubated at 37° C.; each day a sample was removed and frozen away at -80° C. for future determination of bound and free inhibitor.
To obtain sufficient transformed inhibitor for mass spectral analysis, a preparation of baculovirus-expressed enzyme was employed that consisted of all protein sedimenting between 1,000 to 100,000×g. […] The solution was then dialyzed overnight at 4° C. in 14,000 Da cutoff dialysis tubing (SPECTRAPOR 2) against 2 changes of 4L water containing 1 mM MOPS and 1 mM EDTA at pH 7.20.

[2] = biological target: T1, human prostate (type 2) isozyme of 5α-reductase; test: Slow-binding / fixed-time inhibition of human prostate (type 2) 5α-reductase by finasteride; type: biochemical; set-up: host or cells: native human prostate tissue or recombinant from a baculovirus expression system; considered interchangeable
Method: (§1) When tissue extracts were the source of enzyme, the quenched reactions were clarified by centrifugation at 10,000×g before analysis.
Where indicated, measurements were also conducted under conditions that have more traditionally been employed for this enzyme at pH 5.50 and 37° C.
The enzyme was either used directly as a crude cell homogenate, or isolated as microsomal suspensions by differential centrifugation. In general, the tissue or cell pellet was combined with an equal volume of buffer and dispersed using a high shear force homogenizer (POLYTRON, high speed) for several minutes in an ice bath below 10° C. […] Saturating levels of cofactor were usually included to improve enzyme stability.
(§2) The human isozymes were employed exclusively in this research. The native isozymes were from scalp (type 1 ) or prostate (type 2) tissues, and the recombinant forms were produced by a baculovirus expression system. Except where specified, all data refer to the prostate (type 2) isozyme, the primary target of finasteride. All of the experiments described in this application were also conducted with the recombinant type 1 isozyme, either in parallel or for confirmation.
(§3) The data for slow-binding inhibition were analyzed as reviewed by Morrison et al., Adv. Enzymol. 61:201-301 (1988). The kinetic model is shown in the Description of the Invention. The time courses were fit to an integrated first-order rate equation (Equation 1), where A is product concentration, .nu.o is the initial velocity, .nu.s is the infinite-time velocity, and kobs is the first-order rate constant for progression of the enzyme between the two equilibrium states.
vo =kcat (E)(S)/(Km (1+([…]))+S) Equation 2
The rate constant for conversion of the weak complex to the high-affinity one, k2, was obtained by nonlinear regression to Equation 3, which also is a function of Ki.
[(I/Ki)/(1+(S/Km)+(I/Ki)]Equation 3

[3] = biological target: T2, human skin (type 1) isozyme of 5α-reductase (Homo sapiens, UniProt P18405); details: cited from earlier work
T2 construct: made in house
T2 sequence (P18405 1-259): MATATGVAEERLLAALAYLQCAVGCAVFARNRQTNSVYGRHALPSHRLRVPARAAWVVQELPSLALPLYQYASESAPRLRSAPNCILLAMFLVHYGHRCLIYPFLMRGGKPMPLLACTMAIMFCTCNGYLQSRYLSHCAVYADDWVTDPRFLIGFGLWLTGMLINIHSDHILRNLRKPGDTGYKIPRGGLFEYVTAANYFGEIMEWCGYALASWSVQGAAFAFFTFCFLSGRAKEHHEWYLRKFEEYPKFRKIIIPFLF

[4] = biological target: T2, human skin (type 1) isozyme of 5α-reductase; test: Inhibition of human skin (type 1) 5α-reductase by finasteride; type: biochemical; details: type 1, from ratio of rate constants; read-out: steady-state Ki *
Excerpt: as §1, §2, §3

[5] = biological target: T1, human prostate (type 2) isozyme of 5α-reductase; test: Dissociation of enzyme-[^3 H]finasteride complex (release of radioactivity), type 2; type: binding; set-up: host or cells: native human prostate tissue or recombinant from a baculovirus expression system; considered interchangeable; details: 21.9 nM enzyme, 9.33 nM [^3 H]finasteride, 466 μM NADPH, pH 7.2, 37° C.
Method: (§4) The concentrations of bound and free radioactivity were determined by ultrafiltration on 10,000 Da cutoff membranes (AMICON, Centricon-10), which were centrifuged several hours at 4° C.
(§5) Nonspecific binding was assessed by reversing the order of addition, first blocking the […] with excess unlabeled inhibitor before addition of […].

[6] = biological target: T1, human prostate (type 2) isozyme of 5α-reductase; test: Release of radiolabel on denaturation of enzyme-[^3 H]finasteride complex; type: binding; set-up: host or cells: native human prostate tissue or recombinant from a baculovirus expression system; considered interchangeable
Method: as §4, §5

[7] = biological target: T1, human prostate (type 2) isozyme of 5α-reductase; set-up: host or cells: native human prostate tissue or recombinant from a baculovirus expression system; considered interchangeable; details: cited from earlier work
[8] = test system: dihydrotestosterone; details: clinical trials, cited from earlier work

For CC(C)(C)NC(=O)[C@H]1CC[C@H]2[C@@H]3CC[C@H]4NC(=O)C=C[C@]4(C)[C@H]3CC[C@]12C [Compound 1, 17β-(N-tert-butylcarbamoyl)-3-oxo-4-aza-5α-androst-1-ene-3-one], the “inhibition on complex formation” value ([1]; 1.39 μM enzyme, 1.14 μM finasteride, 573 μM NADPH, pH 7.20, 45 min) was 73%, the “[^3 H]-1,2-dihydrofinasteride as share of free tritium released from the [^3 H]finasteride-enzyme complex” value ([1]; off-rate experiment, one month) was > 95% and the “untransformed [^3 H]finasteride released” value ([1]; off-rate experiment, one month) was “no untransformed [^3 H]finasteride was detected”. The “halflife for dissociation (or turnover) of enzyme-inhibitor complex, predicted from association rate” value ([2]; 37° C., assuming Ki * <100 pM) was > 6 h, the “halflife of conversion to high-affinity complex” value ([2]; assuming minimum Ki) was < 30 s and the “suppression of activity at infinite time” value ([2]; lowest practical concentrations of finasteride (2 nM)) was “nearly complete suppression of the activity”. The “Ki for the preliminary complex (theoretical line, minimum value)” value ([2]; type 2) was 0.1 µM, the Ki ([2]; type 2 enzyme, read-out: overall equilibrium constant Ki *) was < 0.0001 µM and the “second-order rate constant for formation of complex” value ([3]; skin (type 1) isozyme, Tian et al.) was 4000 M⁻¹ s⁻¹. The Ki ([3]; skin (type 1) isozyme, Tian et al., read-out: Ki of preliminary weak complex) was 0.36 µM, the “inhibition of type 1 isozyme” value ([3]; skin, listed as finasteride) was “not a significant inhibitor of human skin (type 1 ) isozyme at doses employed in the treatment of BPH; also recorded: relatively insensitive to finasteride” and the Ki [4] was < 0.0002 µM. For the same compound, the “inhibition on complex formation” value [5] was 36%, the “radiolabel released on denaturation” value ([6]; 7M guanidine hydrochloride) was > 99% and the “radiolabel released on denaturation” value ([6]; 45% aqueous ethanol) was > 77%. For the same compound, the “radiolabel released on denaturation” value ([6]; boiling water bath, 2 minutes) was > 96%, the Ki ([7]; Faller et al., native human prostate enzyme, pH 7.0, read-out: dissociation constant Ki) was > 0.15 µM and the “mode of inhibition” value ([7]; fixed-time assays, previously shown) was “competitive with testosterone”. For the same compound, the Ki ([7]; human prostate enzyme, as first perceived in fixed-time assays, read-out: Ki (simple, rapidly-reversible inhibitor)) was 0.026 µM, the “inhibition of type 2 isozyme” value ([7]; prostate) was “potently inhibited by finasteride” and the Ki ([7]; read-out: Ki of essentially irreversible enzyme-inhibitor complex, Faller et al., human prostate isozyme) was < 0.001 µM. For the same compound, the “time for dihydrotestosterone to return to basal levels after withdrawal” value ([8]; Stoner, Gormley et al.) was “two” and the “reduction of dihydrotestosterone levels” value ([8]; circulating concentrations comparable to Ki) was “reduced levels of dihydrotestosterone to values approaching those found in individuals genetically deficient in the prostate isozyme”.
